# What was measured:
# Type in all cases: cell-based
# [1] = test system: S. aureus PIII; assay: Broth microdilution MIC
# Protocol: (§1) Broth microdilution tests were performed according to NCCLS guidelines. Serial two-fold dilutions of each imidazolium salt (from an original working solution which had been 0.22 μm sterile filtered) in Mueller-Hinton Broth (MHB) (100 μl) were prepared in 96-well micro-titre plates over the range 0.0000625-1% w/v. The inoculum to be tested was prepared by adjusting the turbidity of an actively overnight growing broth culture in MHB to an optical density at 550 nm equivalent to 1×10^8 CFU/ml. The suspension was further diluted to provide a final inoculum density of 2×10^5 CFU/ml in MHB as verified by total viable count. The inoculum to be tested (100 μl, 2×10^5 CFU ml^−1) was added to each well of the microdilution trays which were incubated aerobically for 24 h at 37° C. Positive and negative growth controls were included in every assay (6 replicates). After determining the MICs, minimum bactericidal concentrations (MBCs) were determined by spreading 20 μl of suspension from wells showing no growth onto MHA plates, which were then incubated for 24 h and examined for 99.9% killing.
# [2] = test system: K. aerogenes NCTC 7427; assay: Biofilm assay (Calgary Biofilm Device), MBEC; conditions: K. aerogenes NCTC 7427 24 h biofilm, 24 h challenge
# Protocol: (§2) Biofilms of each test organism were grown in the Calgary Biofilm Device (commercially available as the MBEC Assay™ for Physiology & Genetics, Innovotech Inc., Edmonton, Alberta, Canada). The device, a micro-titre plated based assay, consists of two parts; a microtitre plate containing the inoculated test medium and a polystyrene lid with 96 identical pegs on which the microbial biofilm forms under gyrorotary incubation. The biofilm assay was conducted according to the MBEC™ assay protocol as supplied by the manufacturer, with slight modifications. Inocula of each test organism were prepared in MHB as described above and adjusted to provide a final inoculum density of ˜10^7 CFU ml^−1 (as confirmed by viable count). 150 μl of the inoculated media was transferred to each well of the 96-well microtitre plate and the assay plate lid, bearing 96 pegs was placed into the microtitre plate. The MBEC assay plates were placed in a gyrorotary incubator (37° C., 95% relative humidity) for 24 h to permit growth and comparison of 24 h biofilms of each test strain. Positive and negative growth controls were included in each plate (6 replicates). Initial and 24 h planktonic viable counts were measured, as were 24 h biofilm counts, expressed as CFU peg^−1, according to manufacturers instructions. After 24 h, the peg lid of the MBEC assay plate was gently rinsed three times. After rinsing, the peg lid of the MBEC assay was transferred to a ‘challenge’ plate. Serial dilutions of each imidazolium salt were prepared in 200 μl of MHB containing various concentrations of IL in each well. Positive growth control and sterility control were included in each assay plate. […] Biofilms were dislodged into recovery media by sonication for 5 minutes and the peg lid discarded. The recovery plate is incubated overnight and visually checked after 24 h for turbidity. In addition, optical density measurements for each plate were recorded at 550 nm. Clear wells were taken as evidence of biofilm eradication and the MBEC value was assigned as the lowest concentration at which no growth was observed after 24 h incubation. Plates were incubated for a further 24 h to confirm biofilm eradication concentrations.
# [3] = test system: C. tropicalis NCTC 7393; assay: Biofilm assay (Calgary Biofilm Device), MBEC; conditions: C. tropicalis NCTC 7393 24 h biofilm, 24 h challenge
# Protocol: as §2
# [4] = test system: P. aeruginosa PA01; assay: Biofilm assay (Calgary Biofilm Device), MBEC; conditions: P. aeruginosa PA01 24 h biofilm, 24 h challenge
# Protocol: as §2
# [5] = test system: S. aureus PIII; assay: Biofilm assay (Calgary Biofilm Device), MBEC; conditions: S. aureus PIII 24 h biofilm, 24 h challenge
# Protocol: as §2
# [6] = test system: E-MRSA 15; assay: Biofilm assay (Calgary Biofilm Device), MBEC; conditions: E-MRSA 15 24 h biofilm, 24 h challenge
# Protocol: as §2
# [7] = test system: E. coli NCTC 8196; assay: Biofilm assay (Calgary Biofilm Device), MBEC; conditions: E. coli NCTC 8196 24 h biofilm, 24 h challenge
# Protocol: as §2
# [8] = test system: B. cereus; assay: Biofilm assay (Calgary Biofilm Device), MBEC; conditions: B. cereus 24 h biofilm, 24 h challenge
# Protocol: as §2
# [9] = test system: P. mirabilis NCTC 12442; assay: Biofilm assay (Calgary Biofilm Device), MBEC; conditions: P. mirabilis NCTC 12442 24 h biofilm, 24 h challenge
# Protocol: as §2
# [10] = test system: S. epidermidis ATCC 35984; assay: Biofilm assay (Calgary Biofilm Device), MBEC; conditions: S. epidermidis ATCC 35984 24 h biofilm, 24 h challenge
# Protocol: as §2
# [11] = test system: K. aerogenes NCTC 7427; assay: Broth microdilution MIC/MBC; conditions: for MBC: K. aerogenes NCTC 7427, 99.9% killing; for MIC: K. aerogenes NCTC 7427, 24 h at 37° C.
# Protocol: as §1
# [12] = test system: C. tropicalis NCTC 7393; assay: Broth microdilution MIC/MBC; conditions: for MBC: C. tropicalis NCTC 7393, 99.9% killing; for MIC: C. tropicalis NCTC 7393, 24 h at 37° C.
# Protocol: as §1
# [13] = test system: P. aeruginosa PA01; assay: Broth microdilution MIC/MBC; conditions: for MBC: P. aeruginosa PA01, 99.9% killing; for MIC: P. aeruginosa PA01, 24 h at 37° C., read-out: MIC
# Protocol: as §1
# [14] = test system: E-MRSA 15; assay: Broth microdilution MIC/MBC; conditions: for MBC: E-MRSA 15, 99.9% killing; for MIC: E-MRSA 15, 24 h at 37° C.
# Protocol: as §1
# [15] = test system: E. coli NCTC 8196; assay: Broth microdilution MIC/MBC; conditions: for MBC: E. coli NCTC 8196, 99.9% killing; for MIC: E. coli NCTC 8196, 24 h at 37° C.
# Protocol: as §1
# [16] = test system: S. aureus ATCC 29213; assay: Broth microdilution MIC/MBC; conditions: for MBC: S. aureus ATCC 29213, 99.9% killing; for MIC: S. aureus ATCC 29213, 24 h at 37° C.
# Protocol: as §1
# [17] = test system: B. cereus; assay: Broth microdilution MIC/MBC; conditions: for MBC: 99.9% killing; for MIC: 24 h at 37° C.
# Protocol: as §1
# [18] = test system: P. mirabilis NCTC 12442; assay: Broth microdilution MIC/MBC; conditions: for MBC: P. mirabilis NCTC 12442, 99.9% killing; for MIC: P. mirabilis NCTC 12442, 24 h at 37° C.
# Protocol: as §1
# [19] = test system: S. epidermidis ATCC 12228; assay: Broth microdilution MIC/MBC; conditions: for MBC: S. epidermidis ATCC 12228, 99.9% killing; for MIC: S. epidermidis ATCC 12228, 24 h at 37° C.
# Protocol: as §1
# [20] = test system: S. epidermidis ATCC 35984; assay: Broth microdilution MIC/MBC; conditions: for MBC: S. epidermidis ATCC 35984, 99.9% killing; for MIC: S. epidermidis ATCC 35984, 24 h at 37° C.
# Protocol: as §1
Structure (SMILES),MIC [1] [µM],MIC [11] [µM],MIC [12] [µM],MIC [13] [µM],MIC [14] [µM],MIC [15] [µM],MIC [17] [µM],MIC [18] [µM],MIC [20] [µM],MBEC [2] [µM],MBEC [3] [µM],MBEC [4] [µM],MBEC [5] [µM],MBEC [6] [µM],MBEC [7] [µM],MBEC [8] [µM],MBEC [9] [µM],MBEC [10] [µM],MBC [11] [µM],MBC [12] [µM],other results
CCCCCCCC[n+]1cccc2ccccc21.[Br-] [1-alkyl-3-quinolinium bromides 8],242,60,242,484.78,242,121.2,484.78,242,121.2,9782,7826,8315,7826,7826,8315,7826,7826,3913,242,363,MBC [13]: 605 µM; MBC [14]: 484 µM; MBC [15]: 242 µM; MBC [16]: 484 µM; MIC [16]: 242 µM; MBC [17]: 726 µM; MBC [18]: 363 µM; MBC [19]: 242 µM; MIC [19]: 121.2 µM; MBC [20]: 242 µM
CCCCCCCCCC[n+]1cccc2ccccc21.[Br-] [1-alkyl-3-quinolinium bromides 10],111.5,55.74,55.74,223,55.74,55.74,223,111.5,55.74,4568,1792,1792,1956,1792,3584,3584,3584,896,167.22,111.48,MBC [13]: 446 µM; MBC [14]: 111.48 µM; MBC [15]: 167.22 µM; MBC [16]: 111.48 µM; MIC [16]: 111.5 µM; MBC [17]: 278.7 µM; MBC [18]: 167.22 µM; MBC [19]: 111.48 µM; MIC [19]: 55.74 µM; MBC [20]: 111.48 µM
CCCCCCCCCCCC[n+]1cccc2ccccc21.[Br-] [1-alkyl-3-quinolinium bromides 12],25.81,12.9,12.9,51.64,25.8,25.81,51.63,25.81,12.9,981.25,413.87,413.97,619.5,827.94,827.94,774.25,1655.88,413.97,38.7,25.8,MBC [13]: 90.33 µM; MBC [14]: 25.8 µM; MBC [15]: 38.7 µM; MBC [16]: 51.6 µM; MIC [16]: 25.81 µM; MBC [17]: 77.4 µM; MBC [18]: 51.6 µM; MBC [19]: 25.8 µM; MIC [19]: 12.9 µM; MBC [20]: 25.8 µM

# Second part, led by results:
MIC [1] [µM],MIC [11] [µM],MIC [12] [µM],MIC [13] [µM],MIC [14] [µM],MIC [15] [µM],MIC [17] [µM],MIC [18] [µM],MIC [20] [µM],Structure (SMILES),MBEC [2] [µM],MBEC [3] [µM],MBEC [4] [µM],MBEC [5] [µM],MBEC [6] [µM],MBEC [7] [µM],MBEC [8] [µM],MBEC [9] [µM],MBEC [10] [µM],MBC [11] [µM],MBC [12] [µM],other results
5.8,5.8,3,23.95,5.8,11.6,23.95,5.8,5.8,CCCCCCCCCCCCCC[n+]1cccc2ccccc21.[Br-] [1-alkyl-3-quinolinium bromides 14],136.66,68.33,136.66,91.11,136.66,136.66,273.32,546.64,68.33,11.6,3,MBC [13]: 23.95 µM; MBC [14]: 5.8 µM; MBC [15]: 11.6 µM; MBC [16]: 5.8 µM; MIC [16]: 5.8 µM; MBC [17]: 29.75 µM; MBC [18]: 5.8 µM; MBC [19]: 5.8 µM; MIC [19]: 3 µM; MBC [20]: 5.8 µM
209.76,104.88,104.88,419.52,209.76,104.88,419.52,104.88,104.88,CCCCCCCCCCCCCCCCCC[n+]1cccc2ccccc21.[Br-] [1-alkyl-3-quinolinium bromides 18],6712.32,1678.08,6712.32,3356.16,1678.08,1678.08,3356.16,3356.16,1678.08,–,–,–

# From US20110144079A1, “ANTIMICROBIAL SYSTEM” (priority 2008, published 2011)
